# What was measured:
# [1] = test system: relapsed/refractory diffuse large B-cell lymphoma (DLBCL); experiment: JULIET (NCT02445248) pivotal phase 2 trial of tisagenlecleucel in adult r/r DLBCL; type: in vivo, human
# Source text: This Example describes the JULIET (NCT02445248) clinical trial, which is a single-arm, open-label, multicenter, global, pivotal phase 2 trial of tisagenlecleucel, a chimeric antigen receptor (CAR)-T cell therapy targeting CD19, that has shown a high rate of durable complete responses (CR) and a manageable safety profile in adult patients with relapsed/refractory (r/r) diffuse large B-cell lymphoma (DLBCL). The primary objective was met at the interim analysis, with an overall response rate (ORR) of 59% (CR, 43%; partial response [PR], 16%). An updated analysis of the JULIET trial is presented herein with 19 months of follow-up, an additional 5 months since the previous report.
# The primary endpoint was ORR (CR+PR) per independent review committee. Efficacy results are reported for patients in the main cohort with ≥3 months follow-up or earlier discontinuation; safety is reported for all infused patients.
# At data cutoff (21 May 2018), 167 patients were enrolled and 115 were infused (99 with US-manufactured [main cohort] and 16 with EU-manufactured [cohort A] tisagenlecleucel) with a single dose of tisagenlecleucel (median, 3.0×10^8 [range, 0.1-6.0×10^8] CAR19-positive viable T cells). 90% of patients received bridging therapy and 93% received lymphodepleting chemotherapy. Median time from infusion to data cutoff was 19.3 months. Median age was 56 years (range, 22-76); 23% were ≥65 years. At study entry, 77% of infused patients had stage III/IV disease, 17% had double/triple hits in MYC/BCL2/BCL6. 55% and 43% had germinal center and activated B-cell molecular subtypes, respectively. 51% of patients had received ≥3 prior lines of antineoplastic therapy (range, 1-6); 49% had undergone a prior ASCT. All 99 patients in the main cohort had ≥3 months of follow-up or discontinued earlier and were evaluable for efficacy. ORR was 54% (95% CI, 43%-64%) with 40% CR and 13% PR. ORR was consistent across prognostic subgroups (including prior ASCT and double/triple-hit lymphoma) Median duration of response (DOR) was not reached; the probability of being relapse-free was 66% (95% CI, 51%-78%) at 6 months and 64% (95% CI, 48%-76%) at 12 months. DOR was similar by age group (≥ vs <65y) and by relapsed or refractory status (Figure). Median OS among all infused patients was 11.1 months (95% CI, 6.6-NE); OS probability at month 12, 48% (95% CI, 38%-57%; max follow-up, 29 months). No patients proceeded to allogeneic/ASCT while in remission.
# [2] = test system: MCL; conditions: ibrutinib added to CART19 therapy
compound,measurement,setting,value
tisagenlecleucel,Median OS,"[1]; all infused patients, 95% CI 6.6-NE",11.1 months
same,probability of being relapse-free,"[1]; at 6 months, 95% CI 51%-78%",66%
same,probability of being relapse-free,"[1]; at 12 months, 95% CI 48%-76%",64%
same,OS probability,"[1]; at month 12, 95% CI 38%-57%",48%
same,CR,[1]; interim analysis,43%
same,overall response rate (ORR),[1]; interim analysis,59%
same,partial response [PR],[1]; interim analysis,16%
same,Median duration of response (DOR),[1]; updated analysis,not reached
same,ORR,"[1]; updated analysis, data cutoff 21 May 2018, 99 patients main cohort, 95% CI 43%-64%",54%
same,CR,"[1]; updated analysis, main cohort",40%
same,PR,"[1]; updated analysis, main cohort",13%
"C=CC(=O)N1CCC[C@@H](n2nc(-c3ccc(Oc4ccccc4)cc3)c3c(N)ncnc32)C1 [ibrutinib, 1-[(3R)-3-[4-Amino-3-(4-phenoxyphenyl)-1H-pyrazolo[3,4-d]pyrimidin-1-yl]piperidin-1-yl]prop-2-en-1-one]",CART19-mediated CRS,[2],reduced the CART19-mediated CRS
same,survival of the mice,[2],prolonged survival
